Laboratory results taken from US10813859B2, “Wrinkle ameliorating agent” (POLA CHEMICAL INDUSTRIES, INC., priority 2016, dated 2020).

Legend:
[1] = Moisture absorbing property confirmation test; type: physicochemical; conditions: humidity 75%, 25° C.
Method: Compound 1 was precisely weighed in a 1 g weighing bottle, left in a desiccator with a humidity at 75% (a saturated aqueous solution of sodium chloride) in an open state, and stored at 25° C. The weight was measured from the start of the storage until 30 days thereafter, and the coefficient of moisture absorption was determined by the following formula. Coefficient of moisture absorption (%)=(M3−M2)/(M2−M1)×100
M1: The mass of the weighing bottle (g)
M2: The mass of the weighing bottle containing a sample at the start of the storage (g)
M3: The mass of the weighing bottle containing the sample after the storage (g)

[2] = tested on: hyaluronan synthetase gene (HAS1) in normal human epidermal keratinocyte; assay: Test for confirming expression-increasing effect of epidermal hyaluronan synthetase gene; type: cell-based; conditions: 0.2% by mass in medium, 24 hours; qPCR, ACTB internal standard; FIG. 5
Method: Normal human epidermal keratinocyte (produced by Kurabo Industries Ltd.) was inoculated in a 24-well plate at […] cells/well, and incubated overnight at 37° C. in a 5% CO2 environment. The culture medium was exchanged with a medium containing 0.2% by mass of Compound 1, or glycerol (produced by Wako Pure Chemical Industries, Ltd.) and cultured at 37° C. in a 5% CO2 environment for 24 hours.
Using a mRNA recovery kit (FastLane Cell SYBR Green Kit, produced by Qiagen N.V.), mRNA was extracted by a conventional method. Using a qPCR kit (One Step SYBR PrimeScript RT-PCR Kit II, produced by Takara Bio Inc.), the expression level of the hyaluronan synthetase gene (HAS 1) was analyzed by qPCR using ACTB as an internal standard (7500 Real-Time PCR System, produced by Applied Biosystems). Data analysis was carried out by the ΔΔCt method.
The respective relative values were calculated with respect to the expression level of the gene in a medium not containing Compound 1 and glycerol (non-addition group) as 1.

Row | SMILES | moisture absorbing property ([1]; up to 30 days) | Coefficient of moisture absorption (mean value, n = 3) ([1]; storage time 1 day) [%] | Coefficient of moisture absorption (mean value, n = 3) ([1]; storage time 3 days) [%] | Coefficient of moisture absorption (mean value, n = 3) ([1]; storage time 7 days) [%] | Coefficient of moisture absorption (mean value, n = 3) ([1]; storage time 14 days) [%] | Coefficient of moisture absorption (mean value, n = 3) ([1]; storage time 30 days) [%] | expression level of the hyaluronan synthetase gene (HAS 1) compared to the non-addition group [2]
1 | OCC(O)COC1CCCCC1 (centres unmarked) [Compound 1, 3-cyclohexyloxy-1,2-propanediol] | confirmed | 13.2 | 19.0 | 20.5 | 21.0 | 21.2 | significantly larger
2 | OCC(O)CO [glycerol, reference compound] |  |  |  |  |  |  | no significant difference
